Laboratory results published in the NIST ThermoML archive (doi:10.1016/j.tca.2016.03.025).
± gives the expanded uncertainty stated by the source.

Columns and labels:
[1] = Crystal; DTA
[2] = Molar enthalpy of transition or fusion; settings: Crystal; DSC

SMILES	Normal melting temperature [1]	Molar enthalpy of transition or fusion [2]
CCC(=O)O[C@](Cc1ccccc1)(c1ccccc1)[C@H](C)CN(C)C.Cl [Dextropropoxyphene hydrochloride]	168 ± 2 °C	7.6 ± 0.382 kcal/mol
CC(=O)Nc1ccc(O)cc1 [N-acetyl-p-aminophenol]	170.2 ± 2 °C	6.51 ± 0.196 kcal/mol
CN[C@@H](C)[C@@H](O)c1ccccc1.Cl [Pseudoephedrine hydrochloride]	185 ± 2 °C	6.54 ± 0.237 kcal/mol
COc1cccc([C@@]2(O)CCCC[C@@H]2CN(C)C)c1.Cl [tramadol hydrochloride]	184.1 ± 2 °C	7.07 ± 0.311 kcal/mol
